Here are results for 4 molecules from ChEMBL document CHEMBL1201862, “PubChem BioAssay data set” (2004).

Calls of active or inactive are those of the source. Cut-off read from the data, not from the text of the source, for most assays here: actives have a measured IC50 and inactives only a lower limit. Where only a bound is given, the exact number is not on record here.

The target of experiment [1] is T1, Sentrin-specific protease 6 (Homo sapiens, UniProt Q9GZR1).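 Note: Luminescence-based dose-response confirmatory assay of SENP6 inhibition, following up an ultra-high-throughput screen.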
T1 sequence (Q9GZR1 whole entry): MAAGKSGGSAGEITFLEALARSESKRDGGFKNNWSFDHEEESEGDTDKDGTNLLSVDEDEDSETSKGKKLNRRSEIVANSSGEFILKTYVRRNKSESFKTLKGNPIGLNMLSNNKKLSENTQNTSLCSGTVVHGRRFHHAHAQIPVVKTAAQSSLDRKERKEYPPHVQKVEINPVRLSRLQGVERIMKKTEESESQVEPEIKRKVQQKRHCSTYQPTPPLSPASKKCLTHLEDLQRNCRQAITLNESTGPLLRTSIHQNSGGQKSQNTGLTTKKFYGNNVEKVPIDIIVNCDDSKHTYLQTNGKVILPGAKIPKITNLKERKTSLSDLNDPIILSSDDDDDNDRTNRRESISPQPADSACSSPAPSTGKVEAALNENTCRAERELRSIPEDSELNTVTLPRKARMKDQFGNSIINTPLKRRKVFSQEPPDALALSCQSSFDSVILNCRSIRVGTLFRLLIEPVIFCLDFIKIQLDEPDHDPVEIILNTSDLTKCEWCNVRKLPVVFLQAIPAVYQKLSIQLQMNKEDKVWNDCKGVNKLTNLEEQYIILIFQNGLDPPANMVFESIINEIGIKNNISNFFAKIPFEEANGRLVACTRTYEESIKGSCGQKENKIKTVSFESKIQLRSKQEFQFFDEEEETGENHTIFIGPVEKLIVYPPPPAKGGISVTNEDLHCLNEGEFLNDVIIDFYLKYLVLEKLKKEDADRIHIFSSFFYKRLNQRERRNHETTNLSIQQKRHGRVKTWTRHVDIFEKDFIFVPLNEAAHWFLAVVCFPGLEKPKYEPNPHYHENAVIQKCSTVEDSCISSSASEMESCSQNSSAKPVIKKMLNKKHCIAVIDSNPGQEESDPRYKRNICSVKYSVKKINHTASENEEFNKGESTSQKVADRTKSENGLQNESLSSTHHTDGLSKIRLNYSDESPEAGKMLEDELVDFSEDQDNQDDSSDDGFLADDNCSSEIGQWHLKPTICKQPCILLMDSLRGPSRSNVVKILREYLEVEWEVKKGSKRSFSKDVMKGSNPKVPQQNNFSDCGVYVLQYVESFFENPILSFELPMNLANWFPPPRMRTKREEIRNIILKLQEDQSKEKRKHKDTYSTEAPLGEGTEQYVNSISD
Format: functional.

The target of a further experiment is T2, Caspase-3 (Homo sapiens, UniProt P42574).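 Note: Dose-response selectivity test against caspase-3 for candidate inhibitors of sentrin-specific proteases (SENPs).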
T2 sequence (P42574 whole entry): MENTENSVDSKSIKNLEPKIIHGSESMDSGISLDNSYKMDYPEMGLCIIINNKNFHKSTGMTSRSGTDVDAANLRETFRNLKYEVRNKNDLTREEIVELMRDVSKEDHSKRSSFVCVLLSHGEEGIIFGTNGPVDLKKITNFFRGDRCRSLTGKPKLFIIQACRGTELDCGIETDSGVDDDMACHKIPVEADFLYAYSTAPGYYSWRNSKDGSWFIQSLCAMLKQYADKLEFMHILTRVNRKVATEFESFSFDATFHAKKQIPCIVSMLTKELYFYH
Format: functional.

Experiment [2] concerns the target T3, Sentrin-specific protease 8 (Homo sapiens, UniProt Q96LD8).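 Note: luminescence read-out of SENP8 inhibition, dose-response confirmation following an ultra-high-throughput screen.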
T3 sequence (Q96LD8 whole entry): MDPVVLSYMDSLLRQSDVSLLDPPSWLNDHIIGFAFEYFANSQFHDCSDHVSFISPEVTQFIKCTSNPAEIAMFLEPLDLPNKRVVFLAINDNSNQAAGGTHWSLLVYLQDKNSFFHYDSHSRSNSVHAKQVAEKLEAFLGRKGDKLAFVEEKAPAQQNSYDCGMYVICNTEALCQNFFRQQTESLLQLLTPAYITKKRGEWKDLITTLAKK
Format: functional.

The target in the next experiment is T4, Protein RecA (Mycobacterium tuberculosis, UniProt P9WHJ3).
T4 sequence (P9WHJ3 whole entry): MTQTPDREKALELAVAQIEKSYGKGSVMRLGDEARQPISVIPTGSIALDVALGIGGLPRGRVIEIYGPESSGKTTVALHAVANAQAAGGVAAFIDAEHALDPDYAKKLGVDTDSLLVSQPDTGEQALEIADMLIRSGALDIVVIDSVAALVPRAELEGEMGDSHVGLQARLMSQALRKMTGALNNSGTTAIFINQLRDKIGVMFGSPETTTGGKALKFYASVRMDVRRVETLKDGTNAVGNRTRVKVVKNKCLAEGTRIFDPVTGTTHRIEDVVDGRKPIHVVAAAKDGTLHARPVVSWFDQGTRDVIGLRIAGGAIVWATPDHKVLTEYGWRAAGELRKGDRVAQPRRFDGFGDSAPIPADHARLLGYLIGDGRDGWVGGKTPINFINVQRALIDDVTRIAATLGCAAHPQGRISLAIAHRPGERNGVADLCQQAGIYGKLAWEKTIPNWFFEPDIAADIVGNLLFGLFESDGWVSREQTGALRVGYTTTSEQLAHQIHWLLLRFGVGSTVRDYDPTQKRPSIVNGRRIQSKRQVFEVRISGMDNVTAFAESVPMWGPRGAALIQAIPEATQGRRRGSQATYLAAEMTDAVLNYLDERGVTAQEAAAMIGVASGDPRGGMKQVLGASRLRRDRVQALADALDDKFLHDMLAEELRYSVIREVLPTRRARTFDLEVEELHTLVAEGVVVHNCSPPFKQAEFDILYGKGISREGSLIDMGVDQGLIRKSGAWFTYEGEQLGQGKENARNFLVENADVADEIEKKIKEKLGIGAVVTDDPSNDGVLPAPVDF
Put plainly: Fluorescence Cell-Free Homogeneous Dose Retest to Identify Inhibitors of RecA-Intein Splicing Activity. [Related pubchem assays (depositor defined):AID2097, AID2223, AID489010, AID492950]. The experiment is classed as functional.

The target in the next experiment is Keap1/Nrf2 (Homo sapiens, UniProt Q14145). Put plainly: disruptors of Keap1 binding to Nrf2 peptide – biochemical, fluorescence polarization, cherry-picked samples, dose response (AID 588683).
Keap1/Nrf2, sequence (Q16236 whole entry): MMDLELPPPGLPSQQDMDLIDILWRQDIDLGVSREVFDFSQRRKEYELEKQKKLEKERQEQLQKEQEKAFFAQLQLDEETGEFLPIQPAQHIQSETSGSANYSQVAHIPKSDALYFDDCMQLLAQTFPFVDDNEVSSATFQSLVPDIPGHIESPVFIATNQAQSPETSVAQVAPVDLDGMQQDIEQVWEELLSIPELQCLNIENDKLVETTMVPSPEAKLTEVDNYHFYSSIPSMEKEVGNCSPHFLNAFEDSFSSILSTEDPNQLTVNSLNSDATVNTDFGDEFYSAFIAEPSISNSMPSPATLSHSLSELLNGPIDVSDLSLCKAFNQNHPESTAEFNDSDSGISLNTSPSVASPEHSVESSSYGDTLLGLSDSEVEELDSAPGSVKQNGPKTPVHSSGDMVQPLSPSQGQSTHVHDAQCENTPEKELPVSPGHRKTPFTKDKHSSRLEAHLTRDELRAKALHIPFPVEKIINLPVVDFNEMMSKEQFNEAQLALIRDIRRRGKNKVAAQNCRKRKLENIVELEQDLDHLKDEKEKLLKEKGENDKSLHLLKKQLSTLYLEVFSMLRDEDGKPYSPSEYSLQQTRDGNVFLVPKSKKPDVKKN
Keap1/Nrf2, sequence (Q14145 whole entry): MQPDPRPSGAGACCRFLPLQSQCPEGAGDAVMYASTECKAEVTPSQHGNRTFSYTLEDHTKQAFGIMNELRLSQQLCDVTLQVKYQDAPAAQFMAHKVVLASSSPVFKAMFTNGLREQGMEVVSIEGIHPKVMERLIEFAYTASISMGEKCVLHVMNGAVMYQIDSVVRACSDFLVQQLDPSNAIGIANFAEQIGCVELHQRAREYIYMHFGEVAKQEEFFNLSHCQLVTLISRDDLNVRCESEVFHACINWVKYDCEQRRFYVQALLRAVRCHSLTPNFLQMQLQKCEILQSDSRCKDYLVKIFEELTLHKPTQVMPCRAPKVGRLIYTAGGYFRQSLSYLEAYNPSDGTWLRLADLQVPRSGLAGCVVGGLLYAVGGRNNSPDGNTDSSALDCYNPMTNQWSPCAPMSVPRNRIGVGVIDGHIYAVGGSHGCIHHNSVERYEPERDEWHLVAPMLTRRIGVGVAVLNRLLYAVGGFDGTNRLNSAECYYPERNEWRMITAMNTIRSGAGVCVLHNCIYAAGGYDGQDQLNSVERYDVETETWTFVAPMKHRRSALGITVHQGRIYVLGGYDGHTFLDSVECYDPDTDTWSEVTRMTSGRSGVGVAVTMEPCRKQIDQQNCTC

`NC(=O)C1CCN(C2=C(Cl)C(=O)c3ccccc3C2=O)CC1`: the IC50 in experiment [1] was 5.84 µM (active); on Caspase-3, 7.35 µM (active); in experiment [2] it was 8.88 µM (active). Also, at Protein RecA, the 50% effective concentration (EC50) is 0.146 µM (active).
In the case of `O=c1c2ccccc2nc(/C=C/c2cccnc2)n1Cc1ccccc1`, the EC50 on Protein RecA was 9.92 µM (active).
With `O=C(O)c1ccc(N/N=C/c2ccc(OC(=O)c3ccccc3Cl)cc2)cc1`, the IC50 in experiment [1] was 2.16 µM (active); on Caspase-3 it was 14.8 µM (active); in experiment [2], 2.05 µM (active).
Turning to `COC(=O)c1ccccc1NC1=C/C(=N\S(=O)(=O)c2ccc(C(=O)O)cc2)c2ccccc2C1=O`, at Keap1/Nrf2, the AC50 was > 52 µM (inactive).
